In ChEMBL document CHEMBL4814030, “Optimization of ether and aniline based inhibitors of lactate dehydrogenase” (Bioorg Med Chem Lett, 2021):
In brackets after ≈: the same amount, converted by molar mass.

What was measured:
[1] = target: T1, L-lactate dehydrogenase A chain (Homo sapiens, UniProt P00338); experiment: Inhibition of LDHA in human MIA PaCa2 cells assessed as reduction in lactate production incubated for 2 hrs by fluorescence based assay; type: cell-based, MIA PaCa-2
[2] = target: T1, L-lactate dehydrogenase A chain; experiment: Inhibition of recombinant human LDHA using sodium pyruvate as substrate preincubated for 5 mins followed by diaphorase/resazurin addition and measured after 20 mins by fluorescence based assay
[3] = target: T1, L-lactate dehydrogenase A chain; experiment: Inhibition of LDHA in human A673 cells assessed as reduction in lactate production incubated for 2 hrs by fluorescence based assay; type: cell-based
[4] = system: A673; experiment: Cytotoxicity against human A673 cells assessed as reduction in cell viability incubated for 48 hrs by cell titer glo assay; type: functional, cell-based; conditions: A673, 48 h
[5] = Kinetic solubility of compound; type: physicochemical; conditions: read-out: Kinetic_solubility
[6] = Metabolic stability in rat microsomes assessed as half life; type: ADME, Microsome
[7] = system: MIA PaCa-2; experiment: Cytotoxicity against human MIA PaCa-2 cells assessed as reduction in cell viability incubated for 48 hrs by cell titer glo assay; type: functional, cell-based; conditions: MIA PaCa-2, 48 h
[8] = Permeability of compound by PAMPA; type: ADME; conditions: read-out: permeability
[9] = target: T1, L-lactate dehydrogenase A chain; experiment: Binding affinity to LDHA (unknown origin) by SPR analysis

Compound | IC50 [1] [nM] | IC50 [2] [nM] | IC50 [3] [nM] | IC50 [4] [nM] | solubility kinetic [5] [µg/mL] | t1/2 [6] [min] | IC50 [7] [nM] | Papp [8] [×10⁻⁶ cm/s] | Kd [9] [nM]
NS(=O)(=O)c1ccc(Cc2c(-c3ccc(F)c(Oc4cccc(F)c4)c3)nn(-c3nc(C(=O)O)cs3)c2CC2CC2)cc1F | 970 | 27 | – | – | – | – | – | – | –
NS(=O)(=O)c1ccc(Cc2c(-c3cccc(N4CCC(F)(F)CC4)c3)nn(-c3nc(C(=O)O)cs3)c2CC2CC2)cc1F | 8700 | 17 | – | – | – | – | – | – | –
NS(=O)(=O)c1ccc(Cc2cn(-c3nc(C(=O)O)cs3)nc2-c2cccc(OCc3cccnc3)c2)cc1 | > 57000 | 77 | – | – | – | – | – | – | –
COc1cc(-c2nn(-c3nc(C(=O)O)cs3)c(CC3CC3)c2Cc2ccc(S(N)(=O)=O)cc2)ccc1F | 5700 | 8 | – | – | – | – | – | – | –
NS(=O)(=O)c1ccc(Cc2c(-c3ccc(F)c(OCC4CCCO4)c3)nn(-c3nc(C(=O)O)cs3)c2CC2CC2)cc1F (configuration not stated) | 2900 | 5 | – | – | – | – | – | – | –
NS(=O)(=O)c1ccc(Cc2c(-c3ccc(F)c(Oc4ccccc4)c3)nn(-c3nc(C(=O)O)cs3)c2CC2CC2)cc1 | 1700 | 34 | – | – | – | – | – | – | –
NS(=O)(=O)c1ccc(Cc2c(-c3ccc(F)c(OCc4ccc(F)cc4)c3)nn(-c3nc(C(=O)O)cs3)c2CC2CC2)cc1 | 3300 | 84 | – | – | – | – | – | – | –
NS(=O)(=O)c1ccc(Cc2c(-c3ccc(F)c(OCC4CCOC4)c3)nn(-c3nc(C(=O)O)cs3)c2CC2CC2)cc1F (configuration not stated) | 3000 | 5 | – | – | – | – | – | – | –
NS(=O)(=O)c1ccc(Cc2c(-c3ccc(F)c(C(=O)N4CCCC4)c3)nn(-c3nc(C(=O)O)cs3)c2CC2CC2)cc1F | 19900 | 154 | 16600 | > 50000 | > 93 | > 30 | 6600 | 5.7 | –
NS(=O)(=O)c1ccc(Cc2c(-c3cccc(OC4CCCC4)c3)nn(-c3nc(C(=O)O)cs3)c2CC2CC2)cc1F | 710 | 13 | – | – | – | – | – | – | –
NS(=O)(=O)c1ccc(Cc2cn(-c3nc(C(=O)O)cs3)nc2-c2cccc(OCc3cccc(F)c3)c2)cc1 | 6100 | 26 | – | – | – | – | – | – | –
NS(=O)(=O)c1ccc(Cc2c(-c3ccc(F)c(OCc4ccc(C(F)(F)F)o4)c3)nn(-c3nc(C(=O)O)cs3)c2CC2CC2)cc1F | 1000 | 23 | 1100 | 440 | 53.2 (≈ 76.6 µM) | > 30 | 2100 | 12 | 0.001
COc1cccc(-c2nn(-c3nc(C(=O)O)cs3)cc2Cc2ccc(S(N)(=O)=O)cc2)c1 | > 57000 | 90 | – | – | – | – | – | – | –
NS(=O)(=O)c1ccc(Cc2c(-c3ccc(F)c(C(=O)NCc4ccccc4)c3)nn(-c3nc(C(=O)O)cs3)c2CC2CC2)cc1F | 9100 | 8 | 4700 | 5100 | 81 (≈ 122 µM) | 14.9 | 15700 | 8.7 | –
NS(=O)(=O)c1ccc(Cc2cn(-c3nc(C(=O)O)cs3)nc2-c2cccc(OCc3ccccn3)c2)cc1 | > 57000 | 23 | – | – | – | – | – | – | –
NS(=O)(=O)c1ccc(Cc2cn(-c3nc(C(=O)O)cs3)nc2-c2cccc(OCC3CCCC3)c2)cc1 | 7700 | 29 | – | – | – | – | – | – | –
NS(=O)(=O)c1ccc(Cc2c(-c3cccc(N4CCCC(C(F)(F)F)C4)c3)nn(-c3nc(C(=O)O)cs3)c2CC2CC2)cc1F (configuration not stated) | 6900 | 59 | – | – | – | – | – | – | –
NS(=O)(=O)c1ccc(Cc2c(-c3cccc(OCc4ccccc4)c3)nn(-c3nc(C(=O)O)cs3)c2CC2CC2)cc1F | 690 | 19 | 590 | 420 | 72.4 (≈ 117 µM) | 2.8 | 1400 | 1.1 | 0.016

Compound | IC50 [1] [nM] | IC50 [2] [nM] | IC50 [3] [nM] | IC50 [4] [nM] | solubility kinetic [5] [µg/mL] | t1/2 [6] [min] | IC50 [7] [nM] | Papp [8] [×10⁻⁶ cm/s] | Kd [9] [nM]
Cc1ccc(Oc2cc(-c3nn(-c4nc(C(=O)O)cs4)c(CC4CC4)c3Cc3ccc(S(N)(=O)=O)c(F)c3)ccc2F)cc1 | 870 | 26 | 550 | 550 | 24 (≈ 37.7 µM) | 6.2 | 2100 | 13 | 1.1
CC(C)(C)NC(=O)c1cc(-c2nn(-c3nc(C(=O)O)cs3)c(CC3CC3)c2Cc2ccc(S(N)(=O)=O)c(F)c2)ccc1F | 11700 | 6 | – | – | – | – | – | – | –
NS(=O)(=O)c1ccc(Cc2c(-c3ccc(F)c(N4CCCC4=O)c3)nn(-c3nc(C(=O)O)cs3)c2CC2CC2)cc1F | 6000 | 111 | – | – | – | – | – | – | –
Cc1ccc(COc2cccc(-c3nn(-c4nc(C(=O)O)cs4)cc3Cc3ccc(S(N)(=O)=O)cc3)c2)cc1 | 7500 | 39 | – | – | – | – | – | – | –
NS(=O)(=O)c1ccc(Cc2c(-c3cccc(Oc4cccc(F)c4)c3)nn(-c3nc(C(=O)O)cs3)c2CC2CC2)cc1 | 19000 | 1060 | – | – | – | – | – | – | –
NS(=O)(=O)c1ccc(Cc2c(-c3ccc(F)c(Oc4ccc(C(F)(F)F)cc4)c3)nn(-c3nc(C(=O)O)cs3)c2CC2CC2)cc1F | 1100 | 71 | – | – | – | – | – | – | –
CC(C)N1CC2(CN(c3cc(-c4nn(-c5nc(C(=O)O)cs5)c(CC5CC5)c4Cc4ccc(S(N)(=O)=O)c(F)c4)ccc3F)C2)C1 | 24100 | 37 | – | – | – | – | – | – | –
NS(=O)(=O)c1ccc(Cc2c(-c3cccc(N4CCC(C(F)(F)F)CC4)c3)nn(-c3nc(C(=O)O)cs3)c2CC2CC2)cc1F | 2400 | 47 | – | – | – | – | – | – | –
NS(=O)(=O)c1ccc(Cc2cn(-c3nc(C(=O)O)cs3)nc2-c2cccc(Oc3ccccc3)c2)cc1 | 9400 | 17 | – | – | – | – | – | – | –
NS(=O)(=O)c1ccc(Cc2c(-c3ccc(F)c(OCc4cccc(F)c4)c3)nn(-c3nc(C(=O)O)cs3)c2CC2CC2)cc1F | 670 | 22 | 730 | 550 | 10.7 (≈ 16.3 µM) | < 1 | 2100 | 2.9 | 0.91
NS(=O)(=O)c1ccc(Cc2c(-c3ccc(F)c(OCC4CC4(F)F)c3)nn(-c3nc(C(=O)O)cs3)c2CC2CC2)cc1F (configuration not stated) | 1400 | 5 | 1100 | 900 | 76.1 (≈ 120 µM) | > 30 | 2400 | 4.9 | 0.008
COc1cccc(COc2cccc(-c3nn(-c4nc(C(=O)O)cs4)cc3Cc3ccc(S(N)(=O)=O)cc3)c2)c1 | 5400 | 21 | – | – | – | – | – | – | –
NS(=O)(=O)c1ccc(Cc2c(-c3ccc(F)c(C(=O)N4CCOCC4)c3)nn(-c3nc(C(=O)O)cs3)c2CC2CC2)cc1F | 3200 | 22 | – | – | – | – | – | – | –
NS(=O)(=O)c1ccc(Cc2c(-c3cccc(N4CCC(F)(F)C4)c3)nn(-c3nc(C(=O)O)cs3)c2CC2CC2)cc1F | 4200 | 15 | – | – | – | – | – | – | –
NS(=O)(=O)c1ccc(Cc2c(-c3ccc(F)c(OC4CC4)c3)nn(-c3nc(C(=O)O)cs3)c2CC2CC2)cc1F | 2100 | 8 | 1900 | 1500 | > 87 | > 30 | 5700 | 5.8 | 0.004
NS(=O)(=O)c1ccc(Cc2c(-c3ccc(F)c(NC(=O)c4ccccc4)c3)nn(-c3nc(C(=O)O)cs3)c2CC2CC2)cc1F | 5000 | 7 | 2300 | 5300 | > 98 | > 30 | 17400 | 6.4 | –
NS(=O)(=O)c1ccc(Cc2c(-c3cccc(N4CCCC(F)(F)C4)c3)nn(-c3nc(C(=O)O)cs3)c2CC2CC2)cc1F | 8600 | 18 | – | – | – | – | – | – | –
NS(=O)(=O)c1ccc(Cc2c(-c3ccc(F)c(Oc4ccc(F)cc4)c3)nn(-c3nc(C(=O)O)cs3)c2CC2CC2)cc1F | 1700 | 41 | – | – | – | – | – | – | –
